Values quoted from earlier work, collected in patent US20120083452A1, “Topical Anesthetic Uses of Szeto-Schiller Peptides” (priority 2010, published 2012).
Square brackets hold non-standard residues; d marks the D form. Ends that are not written are not given here. Dmt = Cc1cc(O)cc(C)c1C[C@H](N)C(=O)O

How the values were obtained:
mice = mice studies
isolated mitochondria = settings: for MPP+-induced inhibition of oxygen consumption: MPP+ (1-methyl-4-phenylpyridium)
[1] = compared with SS-02
LDL = settings: compared with SS-02

| Substance | treatment of Parkinson's Disease (PD) or Amyotrophic Lateral Sclerosis (ALS) (mice) | MPP+-induced inhibition of ATP production (isolated mitochondria) | MPP+-induced mitochondrial swelling (isolated mitochondria) | MPP+-induced inhibition of oxygen consumption (isolated mitochondria) | scavenging H2O2 [1] | inhibiting LDL oxidation (LDL) |
| --- | --- | --- | --- | --- | --- | --- |
| Phe-D-Arg-Phe-Lys-NH2 (F[dR]FK-NH2; N-terminus assumed; SMILES N=C(N)NCCC[C@@H](NC(=O)[C@@H](N)Cc1ccccc1)C(=O)N[C@@H](Cc1ccccc1)C(=O)N[C@@H](CCCCN)C(N)=O) [SS-20] | may be effective | prevented | prevented | prevented | eliminated the scavenging ability | – |
| D-Arg-2′,6′-Dmt-Lys-Phe-NH2 ([dR][Dmt]KF-NH2) [SS-31] | may be effective | prevented | prevented | prevented | as effective as SS-02 | as effective as SS-02 |
